This assay deals with Multidrug resistance-associated protein 1 (Homo sapiens, UniProt P33527). The assay can be described thus: viability protection against doxorubicin, MRP-1 line – cell-based, doxorubicin EC50 shift, dose response (AID 844).
Sequence of Multidrug resistance-associated protein 1 (P33527 whole entry): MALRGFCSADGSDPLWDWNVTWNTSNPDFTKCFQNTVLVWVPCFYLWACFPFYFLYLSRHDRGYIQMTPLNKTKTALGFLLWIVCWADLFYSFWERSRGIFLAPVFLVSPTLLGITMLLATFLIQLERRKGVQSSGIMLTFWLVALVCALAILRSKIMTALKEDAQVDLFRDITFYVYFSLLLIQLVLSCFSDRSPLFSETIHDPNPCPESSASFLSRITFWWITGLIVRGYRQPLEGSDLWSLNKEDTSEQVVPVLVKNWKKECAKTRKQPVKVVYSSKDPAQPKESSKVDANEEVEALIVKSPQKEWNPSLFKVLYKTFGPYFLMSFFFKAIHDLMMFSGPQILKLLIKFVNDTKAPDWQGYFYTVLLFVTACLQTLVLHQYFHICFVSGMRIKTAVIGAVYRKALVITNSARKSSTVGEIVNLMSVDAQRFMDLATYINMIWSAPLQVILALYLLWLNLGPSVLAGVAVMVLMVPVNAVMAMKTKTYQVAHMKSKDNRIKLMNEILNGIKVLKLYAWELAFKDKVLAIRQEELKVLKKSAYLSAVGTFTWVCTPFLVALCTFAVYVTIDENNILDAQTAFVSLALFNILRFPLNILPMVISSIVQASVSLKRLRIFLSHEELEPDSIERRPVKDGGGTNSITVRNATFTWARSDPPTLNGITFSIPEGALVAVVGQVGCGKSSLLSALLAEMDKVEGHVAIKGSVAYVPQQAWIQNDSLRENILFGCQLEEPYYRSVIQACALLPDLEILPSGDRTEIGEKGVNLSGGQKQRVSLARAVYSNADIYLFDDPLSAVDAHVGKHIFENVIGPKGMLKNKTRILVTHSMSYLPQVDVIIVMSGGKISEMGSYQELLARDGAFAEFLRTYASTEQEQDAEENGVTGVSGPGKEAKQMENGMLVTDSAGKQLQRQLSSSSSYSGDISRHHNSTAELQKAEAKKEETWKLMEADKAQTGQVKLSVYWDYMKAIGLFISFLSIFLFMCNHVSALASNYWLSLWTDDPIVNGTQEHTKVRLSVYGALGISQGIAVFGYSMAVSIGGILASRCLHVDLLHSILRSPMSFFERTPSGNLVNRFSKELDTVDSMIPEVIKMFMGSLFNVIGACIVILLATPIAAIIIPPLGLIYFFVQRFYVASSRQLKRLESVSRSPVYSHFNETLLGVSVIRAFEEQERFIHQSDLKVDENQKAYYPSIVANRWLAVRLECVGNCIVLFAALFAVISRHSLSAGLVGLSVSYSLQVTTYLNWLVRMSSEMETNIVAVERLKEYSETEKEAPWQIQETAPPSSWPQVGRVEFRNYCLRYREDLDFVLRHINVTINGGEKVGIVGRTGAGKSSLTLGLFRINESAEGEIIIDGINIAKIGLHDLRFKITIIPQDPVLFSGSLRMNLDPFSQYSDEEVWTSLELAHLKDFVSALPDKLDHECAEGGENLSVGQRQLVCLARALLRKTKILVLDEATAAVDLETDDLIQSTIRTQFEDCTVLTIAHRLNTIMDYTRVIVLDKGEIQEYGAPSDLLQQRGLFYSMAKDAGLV
Usually EC50 stands for the concentration that produces a half-maximal response. For the compound `Cc1cc(N=NCc2ccc(O)cc2O)nc(-n2nc(C)cc2C)n1` [(4E)-4-[[2-[2-(3,5-dimethylpyrazol-1-yl)-6-methyl-pyrimidin-4-yl]hydrazinyl]methylidene]-3-oxidanyl-cyclohexa-2,5-dien-1-one], the concentration giving a half-maximal response (EC50) is less than 0.195 µM.

As for `Oc1cc(N2CCC(c3nc4ccccc4o3)CC2)c(O)n1-c1cc(Cl)cc(Cl)c1` [3-[4-(1,3-benzoxazol-2-yl)-1-piperidinyl]-1-(3,5-dichlorophenyl)-2,5-pyrrolidinedione], the EC50 is 7.36 µM. In the case of `COc1ccc(CN=Nc2nc(-c3ccc(Cl)cc3)cc(C(F)(F)F)n2)cc1OC` [4-(4-chlorophenyl)-N-[(3,4-dimethoxyphenyl)methylideneamino]-6-(trifluoromethyl)-2-pyrimidinamine] it was 1.9 µM; in that of `COc1ccc(Cc2nnc(N=NCc3ccc(O)cc3O)[nH]c2=O)cc1OC`, 0.836 µM; in that of `O=C1c2ccccc2SC1/C=N/c1cc([N+](=O)[O-])ccc1O` (stereo not drawn) [(2Z)-2-[[(5-nitro-2-oxidanyl-phenyl)amino]methylidene]-1-benzothiophen-3-one], 0.457 µM. In the case of `CCc1ccc(C(C)N=Nc2cc(Cl)nc(C)n2)cc1` (stereo not drawn) [(6-chloro-2-methyl-pyrimidin-4-yl)-[1-(4-ethylphenyl)ethylideneamino]amine] it was 3.75 µM; in that of `Oc1csc(=S)n1N=C1CCCCCC1` [SMR000212426], 4.99 µM; in that of `O=C(CC=NNC(=O)c1ccccc1)c1ccc(Br)cc1` [MLS000532545], 2.86 µM. In the case of `COc1ccc(CN2C(=O)C(=CNc3ccc(OC)cc3)c3ccccc3C2=O)cc1` [SMR000259567] it was 7.24 µM. Consider `CCSC(C)CC1Cc2onc(CC)c2C(N=O)C1` (stereo not drawn) [3-ethyl-6-[2-(ethylthio)propyl]-6,7-dihydro-5H-1,2-benzoxazol-4-one oxime], for which the EC50 stood at 6.85 µM. In the case of `O=CC(=NNc1ccccc1)C(=O)c1ccncc1` [3-keto-2-(phenylhydrazono)-3-(4-pyridyl)propionaldehyde] it was 7.54 µM; in that of `Oc1cc(N2CCCN(c3cc(O)n(-c4ccc(F)cc4)c3O)CC2)c(O)n1-c1ccc(F)cc1` [1-(4-fluorophenyl)-3-[4-[1-(4-fluorophenyl)-2,5-bis(oxidanylidene)pyrrolidin-3-yl]-1,4-diazepan-1-yl]pyrrolidine-2,5-dione], 6.34 µM. In the case of `Oc1cc(N2CCN(c3nc4ccccc4s3)CC2)c(O)n1-c1ccc(F)cc1` [3-[4-(1,3-benzothiazol-2-yl)-1-piperazinyl]-1-(4-fluorophenyl)pyrrolidine-2,5-dione] it was 6.38 µM; in that of `O=S(=O)(c1ccc(Cl)cc1Br)N1CCCCC1` [1-(2-bromanyl-4-chloranyl-phenyl)sulfonylpiperidine], 5.42 µM; in that of `COc1ccc(-n2c(O)cc(N3CCC(O)(c4cccc(C(F)(F)F)c4)CC3)c2O)cc1` [1-(4-methoxyphenyl)-3-[4-oxidanyl-4-[3-(trifluoromethyl)phenyl]piperidin-1-yl]pyrrolidine-2,5-dione], 4.82 µM. For the compound `Oc1nc(Nc2ccccc2)sc1Cc1cccc(Cl)c1Cl` [2-anilino-5-(2,3-dichlorobenzyl)-2-thiazolin-4-one], the EC50 came to 6.54 µM. In the case of `Cc1cc(C)nc(N=NCc2cccc3ccccc23)n1` [(4,6-dimethylpyrimidin-2-yl)-(1-naphthylmethyleneamino)amine] it was 5.39 µM. `C=C(C)C(=O)Nc1cc(=O)n(-c2ccccc2)[nH]1` [2-methyl-N-(5-oxo-1-phenyl-4H-pyrazol-3-yl)prop-2-enamide]: the 50% effective concentration (EC50) amounted to 5.63 µM. In the case of `O=C(O)c1ccc(N=NCc2ccc(F)c(F)c2)cc1` [4-[2-[(3,4-difluorophenyl)methylidene]hydrazinyl]benzoic acid;sulfuric acid] it was 7.07 µM; in that of `O=C1Nc2ccc(F)cc2C12NC(Cc1ccc(O)cc1)c1c2c(O)n(-c2ccc(F)cc2)c1O` [(3aR,6aS)-5'-fluoranyl-5-(4-fluorophenyl)-1-[(4-hydroxyphenyl)methyl]spiro[1,2,3a,6a-tetrahydropyrrolo[3,4-c]pyrrole-3,3'-1H-indole]-2',4,6-trione], 7.52 µM; in that of `COc1cccc(C2C(C(=O)Nc3nc4ccccc4s3)=C(C)N=C3CC(C)(C)CC(=O)C32)c1OC` (stereo not drawn) [N-(1,3-benzothiazol-2-yl)-4-(2,3-dimethoxyphenyl)-2,7,7-trimethyl-5-oxo-1,4,6,8-tetrahydroquinoline-3-carboxamide], 1.6 µM. With `C=CCc1c(C)nc(-c2ccccc2)nc1N=NC(C)c1ccccc1` (stereo not drawn) [(5-allyl-6-methyl-2-phenyl-pyrimidin-4-yl)-(1-phenylethylideneamino)amine], the concentration giving a half-maximal response (EC50) stood at 2.34 µM. Consider `CCOc1ccc2c(c1)C(N=O)C(=O)N2C` (stereo not drawn) [(3E)-5-ethoxy-1-methyl-1H-indole-2,3-dione 3-oxime], for which the EC50 was determined as 3.14 µM.

For the origin of these results see BindingDB's records for doi:10.7270/Q25719FH (Srmlsc, 2007).
